Assays:
[1] = test system: Thromboxane-A synthase (Bos taurus); experiment: Inhibitory effect against thromboxane A2 synthase from bovine platelets at 10 uM concentration
[2] = target: T1, Thromboxane A2 receptor (Homo sapiens) (UniProt P21731); experiment: Binding affinity for thromboxane A2 receptor by measuring its ability to displace [3H]U-46619 from guinea pig platelets at 0.1 uM; conditions: Cavia porcellus, target entry is the homologue from another species
T1 sequence (whole entry): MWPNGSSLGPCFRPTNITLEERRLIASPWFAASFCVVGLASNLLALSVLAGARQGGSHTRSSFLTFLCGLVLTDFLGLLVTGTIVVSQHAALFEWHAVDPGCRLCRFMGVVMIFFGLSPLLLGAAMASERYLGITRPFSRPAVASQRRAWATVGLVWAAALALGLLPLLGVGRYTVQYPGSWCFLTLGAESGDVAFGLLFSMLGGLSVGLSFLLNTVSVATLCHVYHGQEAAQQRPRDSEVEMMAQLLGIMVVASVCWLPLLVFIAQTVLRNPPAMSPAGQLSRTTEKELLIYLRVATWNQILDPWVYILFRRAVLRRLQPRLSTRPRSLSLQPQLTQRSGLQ

[3] = target: T2, Thromboxane-A synthase (Homo sapiens) (UniProt P24557); experiment: Inhibitory activity against thromboxane A2 synthase obtained from bovine platelet microsomes at 10 uM; conditions: Bos taurus, target entry is the homologue from another species
T2 sequence (whole entry): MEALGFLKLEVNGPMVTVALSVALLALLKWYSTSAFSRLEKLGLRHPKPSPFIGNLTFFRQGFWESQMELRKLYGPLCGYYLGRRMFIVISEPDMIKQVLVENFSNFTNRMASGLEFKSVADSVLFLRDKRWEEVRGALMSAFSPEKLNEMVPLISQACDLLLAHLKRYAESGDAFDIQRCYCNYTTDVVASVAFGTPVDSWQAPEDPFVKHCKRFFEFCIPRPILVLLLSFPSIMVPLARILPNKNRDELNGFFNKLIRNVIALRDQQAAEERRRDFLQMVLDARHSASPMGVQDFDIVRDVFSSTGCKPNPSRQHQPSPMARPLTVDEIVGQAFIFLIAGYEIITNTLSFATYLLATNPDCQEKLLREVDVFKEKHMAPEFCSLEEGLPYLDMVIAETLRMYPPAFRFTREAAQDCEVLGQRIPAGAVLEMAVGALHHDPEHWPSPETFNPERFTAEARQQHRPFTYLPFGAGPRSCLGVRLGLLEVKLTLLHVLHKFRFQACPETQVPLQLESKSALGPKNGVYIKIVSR

[4] = target: T1, Thromboxane A2 receptor (Homo sapiens); experiment: Inhibitory effect against binding thromboxane A2 receptor on guinea pig platelets using [3H]U-46619 as radioligand at 1 uM concentration; conditions: Cavia porcellus, target entry is the homologue from another species
[5] = target: T1, Thromboxane A2 receptor (Homo sapiens); experiment: Binding affinity for thromboxane A2 receptor by measuring ability to displace [3H]U-46619 from guinea pig platelets at 1 uM; conditions: Cavia porcellus, target entry is the homologue from another species
Cavia porcellus [6] = experiment: Inhibitory effect of the compounds on U-46619-induced platelet aggregation ex vivo in guinea pig at the dose of 10 mg/kg 2 hr after oral administration; format: functional
Cavia porcellus [7] = experiment: Compound was tested ex vivo for it''s inhibition of U-46619 induced platelet aggregation in the guinea pig after 4 hr of administration at dose 10 mg/kg; format: functional
Cavia porcellus [8] = experiment: Compound was tested ex vivo for it''s inhibition of U-46619 induced platelet aggregation in the guinea pig after 2 hr of administration at dose 10 mg/kg; format: functional
Cavia porcellus [9] = experiment: Inhibitory effect of the compounds on U-46619-induced platelet aggregation ex vivo in guinea pig at the dose of 10 mg/kg 4 hr after oral administration; format: functional
Cavia porcellus [10] = experiment: Compound was tested ex vivo for it's inhibition of U-46619 induced platelet aggregation in the guinea pig after 2 hr of administration at dose 10 mg/kg; format: functional
Cavia porcellus [11] = experiment: Inhibitory effect of the compounds on U-46619-induced platelet aggregation ex vivo in guinea pig at the dose of 10 mg/kg 7 hr oral after administration; format: functional

`COc1cc(C(=O)NCCSC2c3ccccc3COc3ccc(C(=O)O)cc32)cc(OC)c1OC` (stereo unspecified) was tested, and the inhibition [1] was 92%, the inhibition [2] was 50% and the inhibition [3] was 92%. For the same compound, the inhibition [4] was 87% and the inhibition [5] was 87%.
Compound `COc1ccc(S(=O)(=O)NCCSC2c3ccccc3COc3ccc(C(=O)O)cc32)cc1OC` (stereo unspecified) has an inhibition [1] of 70%, an inhibition [2] of 49% and an inhibition [3] of 70%. It also gave an inhibition [4] of 91% and an inhibition [5] of 91%.
With `O=C(O)c1ccc2c(c1)C(SCCNS(=O)(=O)c1ccccc1)c1ccccc1CS2` (stereo unspecified) the Platelet aggregation (Cavia porcellus [6]) was 0%, the Aggregation (Cavia porcellus [7]) was 0% and the inhibition [2] was 94%. For the same compound, the inhibition [4] was 99%, the Aggregation (Cavia porcellus [8]) was 0% and the inhibition [5] was 99%. It also gave a Platelet aggregation (Cavia porcellus [9]) of 0%.
Compound `O=C(NCCSC1c2ccccc2COc2ccc(C(=O)O)cc21)NCc1ccccc1` (stereo unspecified) has an inhibition [1] of 41%, an inhibition [2] of 47% and an inhibition [3] of 41%. The inhibition [4] was 87% and the inhibition [5] was 87%.
Work on `O=C(O)c1cccc(C(SCCNS(=O)(=O)c2ccccc2)c2ccccc2)c1` (stereo unspecified) yielded an inhibition [1] of 19%, an inhibition [2] of 41% and an inhibition [3] of 19%. It also gave an inhibition [4] of 85% and an inhibition [5] of 85%.
For `O=C(O)c1ccc2c(c1)C(SCCNS(=O)(=O)c1cccc([N+](=O)[O-])c1)c1ccccc1CO2` (stereo unspecified), the inhibition [1] was 54%, the inhibition [2] was 83% and the inhibition [3] was 54%. It also gave an inhibition [4] of 93% and an inhibition [5] of 93%.
In the case of `O=C(O)c1ccc2c(c1)C(SCCNS(=O)(=O)c1ccc(F)cc1)c1ccccc1CO2` (stereo unspecified), the inhibition [1] is reported as 33%, the inhibition [2] is reported as 61% and the inhibition [3] is reported as 33%. It also gave an inhibition [4] of 93% and an inhibition [5] of 93%.
`O=C(O)c1ccc2c(c1)C(SCCNS(=O)(=O)c1ccc(C(F)(F)F)cc1)c1ccccc1CO2` (stereo unspecified) gave an inhibition [1] of -9%, an inhibition [2] of 70% and an inhibition [3] of -9%. It also gave an inhibition [4] of 92% and an inhibition [5] of 92%.
In the case of `O=C(O)c1ccc2c(c1)C(SCCNS(=O)(=O)c1ccc(Cl)cc1)c1ccccc1CO2` (stereo unspecified), the inhibition [1] is reported as 79%, the inhibition [2] is reported as 64% and the inhibition [3] is reported as 79%. It also gave an inhibition [4] of 94% and an inhibition [5] of 94%.
For `O=C(NCCSC1c2ccccc2COc2ccc(C(=O)O)cc21)Nc1ccccc1` (stereo unspecified), the inhibition [1] was 58%, the inhibition [2] was 67% and the inhibition [3] was 58%. It also gave an inhibition [4] of 98% and an inhibition [5] of 98%.
Compound `O=C(O)c1ccc2c(c1)C(SCCNS(=O)(=O)c1cccnc1)c1ccccc1CO2` (stereo unspecified) has an inhibition [2] of 67%, an inhibition [4] of 93% and an inhibition [5] of 93%.
`COc1ccccc1C(=O)NCCSC1c2ccccc2COc2ccc(C(=O)O)cc21` (stereo unspecified) was tested, and the inhibition [2] was 86%, the inhibition [4] was 97% and the inhibition [5] was 97%.
Compound `O=C(O)c1ccc2c(c1)C(SCCNS(=O)(=O)c1ccccc1[N+](=O)[O-])c1ccccc1CO2` (stereo unspecified) has an inhibition [1] of 79%, an inhibition [2] of 72% and an inhibition [3] of 72%. The inhibition [4] was 99% and the inhibition [5] was 99%.
With `O=C(O)Cc1ccc2c(c1)C(SCCNS(=O)(=O)c1ccccc1)c1ccccc1CO2` (stereo unspecified) the inhibition [2] was 30%, the inhibition [3] was 13% and the inhibition [5] was 84%.
With `COc1ccc(C(=O)NCCSC2c3ccccc3COc3ccc(C(=O)O)cc32)c(OC)c1OC` (stereo unspecified) the inhibition [2] was 82%, the inhibition [4] was 97% and the inhibition [5] was 97%.
With `COc1ccc(S(=O)(=O)NCCSC2c3ccccc3COc3ccc(C(=O)O)cc32)cc1` (stereo unspecified) the inhibition [1] was 75%, the inhibition [2] was 83% and the inhibition [3] was 75%. The inhibition [4] was 93% and the inhibition [5] was 93%.
For `O=C(O)c1ccc2c(c1)C(SCCNS(=O)(=O)c1ccccc1)c1ccccc1CC2` (stereo unspecified), the inhibition [1] was 68%, the inhibition [2] was 71% and the inhibition [3] was 68%. For the same compound, the inhibition [4] was 95% and the inhibition [5] was 95%.
`CN(CCSC1c2ccccc2COc2ccc(C(=O)O)cc21)S(=O)(=O)c1ccccc1` (stereo unspecified) gave an inhibition [2] of 73%, an inhibition [4] of 92% and an inhibition [5] of 92%.
For `Cc1ccc2c(c1)C(SCCNS(=O)(=O)c1ccccc1)c1ccccc1CO2` (stereo unspecified), the inhibition [1] was -10%, the inhibition [2] was 1% and the inhibition [3] was -10%. It also gave an inhibition [4] of 27% and an inhibition [5] of 27%.
With `O=C(O)c1ccc2c(c1)C(SCCNS(=O)(=O)c1ccccc1)c1cc(Br)ccc1CO2` (stereo unspecified) the Platelet aggregation (Cavia porcellus [6]) was 41%, the inhibition [1] was 6% and the inhibition [2] was 75%. For the same compound, the inhibition [3] was 6%, the inhibition [4] was 94% and the Aggregation (Cavia porcellus [10]) was 41%. The inhibition [5] was 94%.
In the case of `O=C(O)c1ccc2c(c1)C(SCCNC(=O)c1ccccc1O)c1ccccc1CO2` (stereo unspecified), the Platelet aggregation (Cavia porcellus [6]) is reported as 64.5%, the inhibition [1] is reported as 53% and the inhibition [2] is reported as 90%. The inhibition [3] was 53%, the inhibition [4] was 99% and the Aggregation (Cavia porcellus [8]) was 64.5%. It also gave an inhibition [5] of 99%.
`O=C(O)c1ccc2c(c1)C(SCCNS(=O)(=O)c1ccccc1)c1ccccc1OC2` (stereo unspecified) showed an inhibition [1] of 53%, an inhibition [2] of 21% and an inhibition [3] of 53%. It also gave an inhibition [4] of 64% and an inhibition [5] of 64%.
`O=C(O)c1ccc2c(c1)C(SCC/N=C(\S)NCc1ccccc1)c1ccccc1CO2` (stereo unspecified) gave a Platelet aggregation (Cavia porcellus [6]) of 61.7%, an Aggregation (Cavia porcellus [7]) of 61.7% and an inhibition [1] of 92%. The inhibition [2] was 80%, the inhibition [3] was 92% and the inhibition [4] was 96%. For the same compound, the inhibition [5] was 96%.
In the case of `O=C(O)c1ccc2c(c1)C(SCCNC(=O)c1ccccc1)c1ccccc1CO2` (stereo unspecified), the Platelet aggregation (Cavia porcellus [6]) is reported as 68.3%, the inhibition [1] is reported as 63% and the inhibition [2] is reported as 69%. It also gave an inhibition [3] of 63%, an inhibition [4] of 92% and an Aggregation (Cavia porcellus [8]) of 68.3%. For the same compound, the inhibition [5] was 92%.
`O=C(O)c1ccc2c(c1)OCc1ccccc1C2SCCNS(=O)(=O)c1ccccc1` (stereo unspecified) gave an inhibition [1] of 96%, an inhibition [2] of -3% and an inhibition [3] of 96%. The inhibition [4] was 36% and the inhibition [5] was 36%.
`O=C(O)c1ccc2c(c1)C(SCCNS(=O)(=O)c1ccc([N+](=O)[O-])cc1)c1ccccc1CO2` (stereo unspecified) showed an inhibition [1] of 41%, an inhibition [2] of 58% and an inhibition [3] of 41%. The inhibition [4] was 90% and the inhibition [5] was 90%.
`CCCCCC(=O)NCCSC1c2ccccc2COc2ccc(C(=O)O)cc21` (stereo unspecified) was tested, and the inhibition [1] was 4%, the inhibition [2] was 51% and the inhibition [3] was 4%. For the same compound, the inhibition [4] was 88% and the inhibition [5] was 88%.
Compound `Cc1ccsc1C(=O)NCCSC1c2ccccc2COc2ccc(C(=O)O)cc21` (stereo unspecified) has an inhibition [1] of 79%, an inhibition [2] of 81% and an inhibition [3] of 79%. For the same compound, the inhibition [4] was 94% and the inhibition [5] was 94%.
`COc1cccc(OC)c1C(=O)NCCSC1c2ccccc2COc2ccc(C(=O)O)cc21` (stereo unspecified) was tested, and the inhibition [2] was 20%, the inhibition [4] was 72% and the inhibition [5] was 72%.
`O=C(O)c1ccc2c(c1)C(SCCNC(=O)C1CCCCC1)c1ccccc1CO2` (stereo unspecified) showed an inhibition [1] of 19%, an inhibition [2] of 20% and an inhibition [3] of 19%. For the same compound, the inhibition [4] was 66% and the inhibition [5] was 66%.
`Cc1ccc(S(=O)(=O)NCCSC2c3ccccc3COc3ccc(C(=O)O)cc32)cc1` (stereo unspecified) showed an inhibition [1] of 77%, an inhibition [2] of 76% and an inhibition [3] of 77%. It also gave an inhibition [4] of 93% and an inhibition [5] of 93%.
Compound `O=C(O)c1ccc2c(c1)C(SCCNS(=O)(=O)/C=C/c1ccccc1)c1ccccc1CO2` (single isomer, unassigned; (+)) has a Platelet aggregation (Cavia porcellus [6]) of 0%, a Platelet aggregation (Cavia porcellus [11]) of 10.7% and a Platelet aggregation (Cavia porcellus [9]) of 2.3%.
Compound `O=C(O)c1ccc2c(c1)C(SCCNS(=O)(=O)c1cccc3cccnc13)c1ccccc1CO2` (stereo unspecified) has an inhibition [1] of 63%, an inhibition [2] of 44% and an inhibition [3] of 63%. It also gave an inhibition [4] of 90% and an inhibition [5] of 90%.
`O=C(O)c1ccc2c(c1)C(SCCNS(=O)(=O)c1ccccc1)c1ccccc1C=C2` (stereo unspecified) gave an inhibition [1] of 74%, an inhibition [2] of 67% and an inhibition [3] of 74%. For the same compound, the inhibition [4] was 97% and the inhibition [5] was 97%.
In the case of `COc1ccc(OC)c(S(=O)(=O)NCCSC2c3ccccc3COc3ccc(C(=O)O)cc32)c1` (stereo unspecified), the inhibition [1] is reported as 62%, the inhibition [2] is reported as 66% and the inhibition [3] is reported as 62%. For the same compound, the inhibition [4] was 92% and the inhibition [5] was 92%.

Reference: ChEMBL document CHEMBL1126121, “Non-prostanoid thromboxane A2 receptor antagonists with a dibenzoxepin ring system. 1” (J Med Chem, 1992)
